“Also recorded” adds a separate entry of the source.
What was measured:
[1] = test system: Splenocytes from C57BL/6 mice; experiment: In vitro analysis of NP peptide presentation, IFN-γ ELISPOT (FIG. 12); type: cell-based, mouse; conditions: 10 ug/ml pulse 1 hour; for duration of ability of pulsed cells to stimulate T cells: incubation up to 120 hours (limit of the assay)
Procedure: FIG. 12. In vitro analysis of NP peptide presentation. Splenocytes from C57BL/6 mice were pulsed with 10 ug/ml of the indicated peptides for 1 hour at 37C., washed, and incubated for 0, 24, 72, or 120 hours. Cells were then tested by ELISPOT for their ability to induce IFN-γ secretion from NP-specific T cells.
FIG. 12 illustrates a similar analysis performed using the NP system.

[2] = test system: RMA cells; experiment: Sensitization of RMA target cells for CTL lysis, chromium release assay; type: cell-based, mouse; conditions: 10 pg/ml peptide, 1 hour at 37° C., 4-hour chromium release, T cells of influenza-immunized C57BL/6 mice
Procedure: FIG. 1. In vitro sensitization of target cells for peptide-specific lysis by hPER1 conjugates.
To determine whether hPER1-CTL conjugates can form CTL target structures, ^51Cr-labeled RMA cells were pulsed with 10^−11 g/ml NP peptide ([…]) or hPER1-NP peptide ([…]), or were left untreated (no peptide) and incubated for 1 hour at 37° C. The cells were then washed and tested for CTL recognition in a standard 4-hour chromium release assay, using T cells obtained from the spleens of C57BL/6 mice immunized with influenza virus.

[3] = test system: C57BL/6 mice; experiment: i.v. injection of peptide-pulsed dendritic cells, CTL chromium release (FIG. 4); type: in vivo, mouse; conditions: 5×10^5 pulsed DCs i.v., one week post immunization, SIINFEKL-pulsed targets
Procedure: FIG. 4. CTL responses in C57BL/6 nice following intravenous (i.v.) injection of peptide-pulsed DCs. Mice were immunized i.v. with 5×10^5 bone marrow-derived DCs pulsed with the indicated peptides.
Consequently, we tested the ability of transcytosis peptides to generate CTL responses in the context of a DC-based vaccine. Murine bone marrow derived dendritic cells were matured in vitro, pulsed with either […] alone, conjugated with either Tat or hPER1 with or without linkers, and were injected intravenously in the tail vein of C57BL/6 mice. One week post immunization, the splenocytes from vaccinated animals were tested for CTL activity following in vitro restimulation.

[4] = test system: A2/Kb mice; experiment: Immunization with gp100-154 peptides plus or minus helper CD4 peptide, CTL assay (FIGS. 6, 8, 13); type: in vivo, mouse; conditions: for CTL responses / cytotoxicity at three weeks and three months: s.c. immunization, FIG. 13
Description: Results shown represent the mean value of four individual mice for each group.
FIG. 8. The presence of a helper CD4 hepatitis B peptide is essential for the generation of CTL responses against a CD8 peptide. A2/Kb mice were inoculated intranasally with hPER1-FVYVW-154 peptide at different doses from 50 nmoles to 1 nmoles with or without helper peptide.
FIG. 13. Induction of long-term immunity following hPER1-FVYVW-gp100-154 peptide immunization. CTL responses in A2/Kb mice following 3 weeks or 3 months subcutaneous immunization with gp100-154 epitope alone or in association with hPER1-FVYVW. […] Short-term (3 weeks) as well as long-term (3 months) T cell responses are observed in 4/4 or ¾ mice respectively following hPEr1-FVYVW-154 immunization.
(§1) In carrying out the experiments described in FIGS. 6 and 13, mice were immunized by the specified route with 50 nmol (if not specified otherwise) of peptide plus 50 nmol of a hepatitis B epitope in mice to serve as a helper CD4 peptide. Three weeks after the first injection a boost was carried out with the same regimen, and three weeks after that, spleens were harvested and homogenized to a single suspension. Whole splenocytes were placed into culture with 0.5 ug/ml of the epitope peptide and incubated at 37 degrees for five days. A CTL assay was conducted on day five of culture after Ficoll treatment to purify live cells. Controls that were used are matched Kb or A2 binding peptides.

[5] = test system: mice; experiment: Summary of in vivo Immunogenicity Studies (Table IV); parameters: species or system mouse
[6] = test system: HLA-A2/Kb transgenic mice; experiment: s.c. peptide immunization, gp100-154 CTL chromium release (FIG. 5); conditions: 50 ug s.c., boosts days 21 and 42, day 63
Procedure: CTL responses in HLA-A2/Kb transgenic mice following subcutaneous (s.c.) injection of peptide. Mice were immunized s.c. with 50 ug of the indicated peptides and boosted on days 21 and 42 following the first injection. Splenocytes from immunized animals were harvested on day 63 post immunization, re-stimulated with the native gp100-154 peptide for 5 days, and tested for CTL activity in a standard chromium release assay using target cells pulsed with gp100-154 peptide.
Furthermore, CTL responses were assessed in HLA-A2/K^b transgenic mice (Sherman strain) following s.c. immunization with gp100-154 peptide alone, conjugated to hPER1 or AntpHD with or without linker FVYVW. Mice were boosted on days 21 and 42 and splenocytes from vaccinated animals were harvested on day 63 and tested for CTL activity after 5 days of restimulation in vitro.

[7] = test system: C57BL/6 mice; experiment: Immunization with […] conjugates, CTL assay (FIGS. 7, 9, 10); type: in vivo, mouse; conditions: for cytotoxicity levels, adjuvant free immunization: s.c. without adjuvant; for CTL responses / cytotoxicity, Tat versus hPER1 conjugates: s.c., DEVWEL linker, FIG. 7
Description: FIG. 7. In vivo induction of T cell responses using hPER1 or Tat peptides conjugated to […] epitope. Mice were immunized subcutaneously with […] peptide associated to either Tat or hPER1 with the DEVWEL linker sequence. Results shown in this figure represent the mean value of 4 individual mice for each group.
FIG. 9. […] C57BL/6 mice were immunized intradermally with different doses of hPER1-SGQL-[…] with or without helper peptide.
FIG. 10. In vivo induction of immunity following adjuvant free peptide immunization with hPER1 associated to […] in the presence of different linker sequences.
as §1

[8] = test system: Splenocytes from C57BL/6 mice; experiment: In vitro analysis of OVA ([…]) peptide presentation, IFN-γ ELISPOT (FIG. 11); type: cell-based, mouse; conditions: 10 ug/ml pulse 1 hour; for stimulatory activity of pulsed cells after 30 hours: 30 hours incubation, IFN-γ ELISPOT
Procedure: FIG. 11. In vitro analysis of OVA ([…]) peptide presentation. Splenocytes from C57BL/6 mice were pulsed with 10 ug/ml of the indicated peptides for 1 hour at 37° C., washed, and incubated for 0, 4, 8, 24, or 30 hours. Cells pulsed with transduction peptides were pre-incubated with a bGAL peptide to block any cell surface binding. The cells were then tested by ELISPOT for their ability to induce IFN-γ secretion from […]-specific T cells. Spot counts greater than 300/well could not be counted. *=sample not tested.
To further study the effect of coupling CTL epitopes to the hPER1 transduction domain, the following in vitro assay was developed to assess the kinetics of antigen presentation following incubation of cells with peptide. In FIG. 11, splenocytes from C57BL/6 mice were incubated with different OVA-based peptides for 1 hour at 37° C. The cells were then washed to remove any residual free peptide, and incubated in culture medium at 37° C. for 0, 4, 8, 24 or 30 hours. The cells were then tested for their ability to stimulate IFN-γ production from […]-specific T cells by ELISPOT.

[9] = grades − to + + + +, key not given

Substance: ASNENMETM [reference compound]
- stimulatory activity of pulsed cells after 24 hours of incubation ([1]; IFN-γ ELISPOT with NP-specific T cells): shows a loss in activity

Substance: GRRHHRRSKAKRSRASNENMETM [hPER1, no linker, flu NP366-374]
- sensitization of RMA target cells for CTL-mediated lysis [2]: can be sensitized for CTL-mediated lysis
- duration of ability of pulsed cells to stimulate T cells [1]: retain their ability to stimulate T cells out to five days

Substance: GYGRKKRRQRRR-LEQLE-SIINFEKL
- CTL responses after peptide-pulsed DC vaccine [3]: less immunogenic than TAT-SIINFEKL without linker

Substance: KTWGQYWQV [reference compound]
- CTL responses / cytotoxicity at three weeks and three months ([4]; listed as 154): did not induce cytotoxicity at either three weeks or three months; also recorded: does not generate significant CTL responses

Substance: RQIKIWFQNRRMKWKKFVYVWKTWGQYWQV [AntpHD, linker FVYVW, gp100-154]
- Immunogenicity in mice [5, 9]: + + + +

Substance: RQIKIWFQNRRMKWKKLKTWGQYWQV [AntpHD, linker L, gp100-154]
- Immunogenicity in mice [5, 9]: + + +

Substance: RQIKIWFQNRRMKWKKTWVGQYWQV
- CTL responses against gp100-154 [6]: a weak response was observed

Substance: RRHHRRSKAKRSRDEVWELSIINFEKL [hPER1, linker DEVWEL, OVA]
- cytotoxicity levels, adjuvant free immunization ([7]; FIG. 10): comparable
- CTL responses / cytotoxicity, Tat versus hPER1 conjugates [7]: gave the best CTL responses as compared to the positive control SIINFEKL in IFA
- CTL responses / cytotoxicity, Tat versus hPER1 conjugates ([7]; listed as hPER1-DEVWEL-SIINFEKL): induced a greater level of cytotoxicity as compared to Tat-DEVWEL-SIINFEKL at all E:T ratios tested
- Immunogenicity in mice [5, 9]: + + + +

Substance: RRHHRRSKAKRSRFVYVWKTWGQYWQV [hPER1, linker FVYVW, gp100-154] [listing 1 of 2 here]
- Immunogenicity in mice ([5]; mouse, in vivo): + + + +

Substance: RRHHRRSKAKRSRFVYVWKTWGQYWQV [hPER1, linker FVYVW, gp100-154] [listing 2 of 2 here]
- CTL responses by different routes of immunization ([4]; 50 nmol peptide plus 50 nmol helper peptide, intradermal, subcutaneous or intranasal): can be generated through different routes of immunization
- cytotoxicity at 10 nmoles without helper peptide ([4]; intranasal, 10 nmoles, absence of helper peptide): does not induce significant cytotoxicity
- T cell cytotoxicity, without helper peptide ([4]; intranasal, in the absence of helper peptide): induced much lower levels of cytotoxicity
- T cell cytotoxicity, with helper peptide ([4]; intranasal, in the presence of helper CD4 hepatitis B peptide): induced significant T cell cytotoxicity
- CTL responses / cytotoxicity at three weeks and three months [4]: induced cytotoxicity that was detectable for at least three months
- mice with long-term T cell responses ([4]; s.c., 3 months, 4 mice/group): ¾
- mice with short-term T cell responses ([4]; s.c., 3 weeks, 4 mice/group): 4/4

Substance: RRHHRRSKAKRSRFVYVWSIINFEKL [hPER1, linker FVYVW, OVA]
- cytotoxicity levels, adjuvant free immunization ([7]; FIG. 10): comparable
- Immunogenicity in mice [5, 9]: + + + +

Substance: RRHHRRSKAKRSRFVYVWSVYDFFVWL [hPER1, linker FVYVW, TRP-2]
- Immunogenicity in mice [5, 9]: + + +

Substance: RRHHRRSKAKRSRLSVYDFFVWL [hPER1, linker L, TRP2]
- Immunogenicity in mice [5, 9]: + +

Substance: RRHHRRSKAKRSRRGVQIASNENMETM [hPER1, linker RGVQI, flu NP366-374]
- duration of ability of pulsed cells to stimulate T cells [1]: retain their ability to stimulate T cells out to five days

Substance: RRHHRRSKAKRSRSGQLSIINFEKL [hPER1, linker SGQL, OVA]
- T cell responses without helper peptide at higher peptide dose ([7]; intradermal, different doses, absence of helper peptide, FIG. 9): can induce T cell responses in mice
- stimulatory activity of pulsed cells after 30 hours [8]: no reduction in activity

Substance: RRHHRRSKAKRSRSIINFEKL [hPER1, no linker, OVA]
- CTL responses after peptide-pulsed DC vaccine [3]: generated a stronger response than either DCs pulsed with native SIINFEKL peptide or hPER1-LEQLE-SIINFEKL

Substance: RRHHRRSKAKRSRSVYDFFVWL [hPER1, no linker, TRP-2]
- Immunogenicity in mice [5, 9]: + +

Substance: SIINFEKL [reference compound]
- cytotoxicity levels, peptide in IFA ([7]; administered with incomplete Fruend's adjuvant, FIG. 10): comparable
- incubation time by which pulsed cells lose their stimulatory capacity ([8]; IFN-γ ELISPOT with SIINFEKL-specific T cells): ≤ 24 h

Substance: SVYDFFVWL [TRP2 peptide, unconjugated, reference compound]
- CTL responses after peptide-pulsed DC vaccine [3]: non immunogenic
- Immunogenicity in mice [5, 9]: + +

Substance: YGRKKRRQRRRDEVWELSIINFEKL
- stimulatory activity of pulsed cells after 30 hours [8]: no reduction in activity
- Immunogenicity in mice ([5]; mouse, in vivo): + + +

— US20060002946A1, “Targeted immunogens” (Aventis Pasteur, Inc., priority 2003, published 2006)
